From ChEMBL document CHEMBL1156829 (Proc Natl Acad Sci U S A, 2008)

Experiments:
[1] = tested on: Plasmodium falciparum; assay: NOVARTIS: Inhibition of Plasmodium falciparum W2 (drug-resistant) proliferation in erythrocyte-based infection assay; format: functional, organism-based; details: Plasmodium falciparum, W2; read-out: EC50
[2] = tested on: Plasmodium falciparum; assay: NOVARTIS: Inhibition of Plasmodium falciparum 3D7 (drug-susceptible) proliferation in erythrocyte-based infection assay; format: functional, organism-based; details: Plasmodium falciparum, 3D7
[3] = NOVARTIS: Cytotoxicity against human hepatocellular carcinoma cell line (Huh7); format: toxicity, cell-based, Huh-7; details: Huh7 cells (hepatocellular carcinoma cell line)

Molecule `CCN(CC)CCCC(C)N=c1[nH]c(C=Cc2ccccc2OC)nc2cc(Cl)ccc12` (centres undefined) has an EC50 [1] of 160 nM, an EC50 [2] of 30.8 nM and a CC50 [3] of 7930 nM.

In the case of `CN(C)c1ccc(/C=C2/SC(=Nc3ccccc3)NC2=O)cc1`, the EC50 [1] is reported as 200 nM, the EC50 [2] is reported as 109 nM and the CC50 [3] is reported as greater than 10000 nM.

With `CC(=O)NC(CO)C(O)c1ccc([N+](=O)[O-])cc1` (centres undefined) the EC50 [1] was 2050 nM, the EC50 [2] was greater than 9720 nM and the CC50 [3] was greater than 100000 nM.

`C(=NNc1nc2ccccc2[nH]1)c1c[nH]c2ccccc12` gave an EC50 [1] of 391 nM, an EC50 [2] of 330 nM and a CC50 [3] of 19200 nM.

Work on `COc1ccc2c(c1)OC(O)(C(F)(F)C(F)(F)F)CC2=O` (centres undefined) yielded an EC50 [1] of 1000 nM, an EC50 [2] of 442 nM and a CC50 [3] of 49700 nM.

For `CCCCCCc1ccc(C(=O)N(C)CCCNc2ccnc3cc(Cl)ccc23)cc1`, the EC50 [1] was 219 nM, the EC50 [2] was 670 nM and the CC50 [3] was greater than 10800 nM.

With `CC[n+]1c(/C=C/c2cc(Br)ccc2OC)ccc2ccccc21` the EC50 [1] was 202 nM, the EC50 [2] was 155 nM and the CC50 [3] was greater than 10000 nM.

Molecule `CCN(CC)S(=O)(=O)c1ccc(C(=O)c2c(C)c(C(=O)C(F)(F)F)c3ccccn23)cc1` has an EC50 [1] of 2020 nM, an EC50 [2] of 3150 nM and a CC50 [3] greater than 100000 nM.

Work on `CN(CCCNc1ccnc2cc(Cl)ccc12)C(=O)C1CCC1` yielded an EC50 [1] of 93 nM, an EC50 [2] of 192 nM and a CC50 [3] of 4570 nM.

Work on `O=C(C=Cc1ccc(Br)cc1)NC(=O)c1ccccc1O` yielded an EC50 [1] of 2040 nM, an EC50 [2] of 684 nM and a CC50 [3] greater than 100000 nM.

`O=C(C=Cc1ccccc1)Nc1ccc(-c2nc3cc(NC(=O)C=Cc4ccccc4)ccc3[nH]2)cc1` showed an EC50 [1] of 116 nM, an EC50 [2] of 56 nM and a CC50 [3] of 5700 nM.

For `CCN1CCN(c2cc(C)c3cc(NC(=O)C=Cc4cccc(Cl)c4)ccc3n2)CC1`, the EC50 [1] was 1260 nM, the EC50 [2] was 824 nM and the CC50 [3] was 61400 nM.

In the case of `CC(=O)N(C1=C(N(C)C)C(=O)c2ccccc2C1=O)c1cccc(Cl)c1`, the EC50 [1] is reported as 64.9 nM, the EC50 [2] is reported as 27.3 nM and the CC50 [3] is reported as 3180 nM.

For `CSc1cccc([C@@H]2C[C@H]3CN(c4ccccc4)C(=O)[C@]34CCCN24)c1`, the EC50 [1] was 480 nM, the EC50 [2] was 1210 nM and the CC50 [3] was 23500 nM.

Work on `CC(C)c1ccc(C=CC(=O)NCc2ccco2)cc1` yielded an EC50 [1] of 2000 nM, an EC50 [2] of 1480 nM and a CC50 [3] greater than 100000 nM.

`O=c1c2[nH]c3ccccc3c2ncn1Cc1ccc2c(c1)OCO2` showed an EC50 [1] of 2000 nM, an EC50 [2] greater than 12500 nM and a CC50 [3] greater than 100000 nM.

For `Cc1nc(-c2ccc[n+](C)c2)sc1C(=O)/C=C/c1ccc(Cl)cc1`, the EC50 [1] was 200 nM, the EC50 [2] was 283 nM and the CC50 [3] was greater than 10000 nM.

With `CN(CCCNc1ccnc2cc(Cl)ccc12)S(=O)(=O)c1cc(Cl)ccc1Cl` the EC50 [1] was 251 nM, the EC50 [2] was 398 nM and the CC50 [3] was greater than 12200 nM.

In the case of `Cc1ccc(OCC(=O)Nc2cccc(-c3nc4ncccc4o3)c2)cc1C`, the EC50 [1] is reported as 2050 nM, the EC50 [2] is reported as 1900 nM and the CC50 [3] is reported as greater than 100000 nM.

For `COc1ccc(CN2CCN(C(=O)c3cccnc3)CC2)cc1OC`, the EC50 [1] was 2010 nM, the EC50 [2] was 349 nM and the CC50 [3] was greater than 100000 nM.

With `COc1cc(-c2nc(-c3ccccc3)c(-c3cccc(C(F)(F)F)c3)[nH]2)cc(OC)c1O` the EC50 [1] was 902 nM, the EC50 [2] was 622 nM and the CC50 [3] was 44900 nM.

Work on `O=C(Nc1ccc(-c2nc3cc(NC(=O)c4cccs4)ccc3[nH]2)cc1)c1cccs1` yielded an EC50 [1] of 2010 nM, an EC50 [2] of 1550 nM and a CC50 [3] greater than 100000 nM.

With `CCOc1ccc(CCN2C(=S)N(c3cccc(C(F)(F)F)c3)C(=O)C2CC(=O)Nc2ccc(C(=O)OC)cc2)cc1OCC` (centres undefined) the EC50 [1] was 580 nM, the EC50 [2] was 1740 nM and the CC50 [3] was 28500 nM.

Molecule `COc1cc(NCCCC(C)Nc2ccnc3cc4ccccc4cc23)c2ncccc2c1` (centres undefined) has an EC50 [1] of 49.9 nM, an EC50 [2] of 83.5 nM and a CC50 [3] of 2470 nM.

In the case of `CCCn1nc(NS(C)(=O)=O)c2cc3cccc(C)c3nc21`, the EC50 [1] is reported as 2020 nM, the EC50 [2] is reported as greater than 9100 nM and the CC50 [3] is reported as greater than 100000 nM.

Work on `Cc1ncc([N+](=O)[O-])n1CCOC(=O)c1c(NC(=O)c2ccccc2)sc2c1CCCC2` yielded an EC50 [1] of 2000 nM, an EC50 [2] of 2600 nM and a CC50 [3] greater than 100000 nM.

Work on `Cc1ccc(C)n1-c1ccc(C(=O)N2CCC(C)CC2)cc1` yielded an EC50 [1] of 2040 nM, an EC50 [2] of 5120 nM and a CC50 [3] greater than 100000 nM.

In the case of `CCCCNC(=O)C(CC)Sc1nnc(-c2ccc(C)cc2)c(-c2ccc(C)cc2)n1` (centres undefined), the EC50 [1] is reported as 2050 nM, the EC50 [2] is reported as 471 nM and the CC50 [3] is reported as greater than 100000 nM.
